According to patent US11807693B2 (priority 2014, dated 2023):
Read-outs that look alike come from different tables or passages of the source. Starred links: 1 amine or outer side, 2 acyl side, 3 side chain; linkers in the order of their positions; H or OH if unused. Non-standard residues stand in square brackets, D forms with d. Residues, ends and D or L forms follow the SMILES beside them. *: point of attachment. dBip = N[C@H](Cc1ccc(-c2ccccc2)cc1)C(=O)O; Oic = O=C(O)[C@@H]1C[C@@H]2CCCC[C@@H]2N1; Phe(4-Cl) = N[C@@H](Cc1ccc(Cl)cc1)C(=O)O; Phe(4-I) = N[C@@H](Cc1ccc(I)cc1)C(=O)O; γGlu = O=C(O)[C@H](CCC(=O)[*:2])N[*:1]; HOOC(CH2)8CO = O=C(O)CCCCCCCCC(=O)*; NMeR = CN[C@@H](CCCNC(=N)N)C(=O)O; Tridecanoyl = CCCCCCCCCCCCC(=O)*; hArg = N=C(N)NCCCC[C@H](N)C(=O)O; Cha = N[C@@H](CC1CCCCC1)C(=O)O; NMeL = CN[C@@H](CC(C)C)C(=O)O; Pip = O=C(O)[C@@H]1CCCCN1; Nle = CCCC[C@H](N)C(=O)O; Orn = NCCC[C@H](N)C(=O)O; AEEA = NCCOCCOCC(=O)O; Aib = CC(C)(N)C(=O)O

Columns and labels:
human APJ receptor = molecular target: T1, human APJ receptor (Homo sapiens, UniProt P35414); test: [35S] GTPγS assay, human APJ receptor; format: biochemical
T1 construct: expressed in transfected cells
T1 sequence (P35414 1-380): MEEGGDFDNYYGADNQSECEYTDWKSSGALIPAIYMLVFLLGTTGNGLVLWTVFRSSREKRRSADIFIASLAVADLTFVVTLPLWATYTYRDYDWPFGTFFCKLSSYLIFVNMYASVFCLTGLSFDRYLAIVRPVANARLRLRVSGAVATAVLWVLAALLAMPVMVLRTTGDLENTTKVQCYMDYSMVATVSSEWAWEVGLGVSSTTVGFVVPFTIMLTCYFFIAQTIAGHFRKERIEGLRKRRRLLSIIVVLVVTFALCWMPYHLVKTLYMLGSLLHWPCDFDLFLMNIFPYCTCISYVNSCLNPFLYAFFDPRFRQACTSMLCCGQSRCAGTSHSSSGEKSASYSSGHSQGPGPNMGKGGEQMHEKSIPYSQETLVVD

[1] = In vitro stability in rat plasma; format: in vitro ADME
Outline: (§1)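 Apelin peptides spiked to 5 μM final into rat plasma, liver homogenate or kidney homogenate and incubated at 37° C. for up to 4 hr. Aliquots quenched with MeOH containing internal standard, centrifuged, and supernatants analysed by high-resolution LC-MS.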

[2] = In vitro stability in rat kidney homogenate; format: in vitro ADME; details: rat, tissue homogenate
Outline: as §1

[3] = In vitro stability in rat liver homogenate; format: in vitro ADME; details: tissue homogenate
Outline: as §1

rat APJ receptor = molecular target: T2, rat APJ receptor (Rattus norvegicus, UniProt Q9JHG3); test: [35S] GTPγS assay, rat APJ receptor; format: biochemical
T2 construct: expressed in transfected cells
T2 sequence (Q9JHG3 1-377): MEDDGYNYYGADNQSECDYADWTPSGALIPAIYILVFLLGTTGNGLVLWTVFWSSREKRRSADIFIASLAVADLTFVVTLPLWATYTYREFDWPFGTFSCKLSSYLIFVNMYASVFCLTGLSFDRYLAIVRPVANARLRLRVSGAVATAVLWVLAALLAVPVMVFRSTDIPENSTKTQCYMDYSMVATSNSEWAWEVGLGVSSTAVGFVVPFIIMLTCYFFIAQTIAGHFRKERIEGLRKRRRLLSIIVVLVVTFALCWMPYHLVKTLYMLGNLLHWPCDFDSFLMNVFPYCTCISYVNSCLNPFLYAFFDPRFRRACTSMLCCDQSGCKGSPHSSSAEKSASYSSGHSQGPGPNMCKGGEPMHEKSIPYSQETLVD
Procedure: The membranes were incubated with modified peptides in the assay buffer. […] Bound [^35S] GTPγS was separated from free radiolabel by filtration. The filter bound radioactivity was determined by liquid scintillation counting.

[4] = rat APJ receptor, read-out: EC50 Rat APJ Receptor
[5] = Table 16, read-out: EC50 Rat APJ Receptor

**Q.** For `CC(C)C[C@@H](C(=O)N[C@@H](CO)C(=O)N[C@@H](Cc1c[nH]cn1)C(=O)N[C@@H](CCCCN)C(=O)NCC(=O)N1[C@H](C(=O)N[C@@H](Cc2ccc(I)cc2)C(=O)N2CCC[C@H]2C(=O)N[C@H](Cc2ccc(-c3ccccc3)cc2)C(=O)O)C[C@@H]2CCCC[C@@H]21)N(C)C(=O)[C@@H](CCCNC(=N)N)NC(=O)[C@@H]1CCCN1C(=O)[C@H](CCCCNC(=N)N)NC(=O)[C@H](CCC(N)=O)NC(=O)COCCOCCNC(=O)COCCOCCNC(=O)CC[C@H](NC(=O)CCCCCCCCC(=O)O)C(=O)O` [compound 288] ({HOOC(CH2)8CO-γGlu-AEEA-AEEA}-Q[hArg]P[dR][NMeL]SHKG[Oic][Phe(4-I)]P[dBip]-OH), which EC50 (human APJ receptor; human APJ receptor) is on record?
**A.** 38.5 nM

**Q.** With `CCCCCCCCCCCCC(=O)N[C@@H](CCC(=O)NCCOCCOCC(=O)NCCOCCOCC(=O)N[C@H](CCC(N)=O)C(=O)N[C@@H](CCC(=O)O)C(=O)N1CCC[C@H]1C(=O)N(C)[C@@H](CCCNC(=N)N)C(=O)N[C@@H](CC1CCCCC1)C(=O)N[C@@H](CO)C(=O)N[C@@H](Cc1c[nH]cn1)C(=O)N[C@@H](CCCCN)C(=O)NCC(=O)N1[C@H](C(=O)N[C@@H](CCCC)C(=O)NC(C)(C)C(=O)N[C@@H](Cc2ccc(Cl)cc2)C(=O)O)C[C@@H]2CCCC[C@@H]21)C(=O)O` [compound 524] ({Tridecanoyl-γGlu-AEEA-AEEA}-[dQ]EP[NMeR][Cha]SHKG[Oic][Nle][Aib][Phe(4-Cl)]-OH) as the compound, how does the EC50 (human APJ receptor; Table 16) read?
**A.** 53.1 nM

**Q.** With `CCCCCCCCCCCCC(=O)N[C@@H](CCC(=O)NCCOCCOCC(=O)NCCOCCOCC(=O)N[C@@H](CCCNC(=N)N)C(=O)N[C@@H](CCC(N)=O)C(=O)N[C@@H](CCCNC(=N)N)C(=O)N1CCC[C@H]1C(=O)N[C@@H](CCCCN)C(=O)N[C@@H](CC1CCCCC1)C(=O)N[C@@H](C)C(=O)N[C@@H](C)C(=O)N[C@@H](CCCC)C(=O)NCC(=O)N1[C@H](C(=O)N[C@@H](CCCC)C(=O)N2CCC[C@H]2C(=O)N[C@@H](Cc2ccc(Cl)cc2)C(=O)O)C[C@@H]2CCCC[C@@H]21)C(=O)O` [compound 346] ({Tridecanoyl-γGlu-AEEA-AEEA}-RQRPK[Cha]AA[Nle]G[Oic][Nle]P[Phe(4-Cl)]-OH) as the compound, how does the EC50 (human APJ receptor; Table 16) read?
**A.** 2.77 nM

**Q.** Which EC50 (human APJ receptor; human APJ receptor) does the source give for `CCCCCCCCCCCCC(=O)N[C@@H](CCC(=O)NCCOCCOCC(=O)NCCOCCOCC(=O)N[C@@H](CCCCNC(=N)N)C(=O)N[C@@H](CCCC)C(=O)N[C@@H](CCC(N)=O)C(=O)N[C@@H](CCCCNC(=N)N)C(=O)N1CCC[C@H]1C(=O)N[C@H](CCCNC(=N)N)C(=O)N(C)[C@@H](CC(C)C)C(=O)N[C@@H](C)C(=O)N[C@@H](Cc1c[nH]cn1)C(=O)N[C@@H](CCCCN)C(=O)NCC(=O)N1[C@H](C(=O)N[C@@H](Cc2ccc(I)cc2)C(=O)N2CCC[C@H]2C(=O)N[C@H](Cc2ccc(-c3ccccc3)cc2)C(=O)O)C[C@@H]2CCCC[C@@H]21)C(=O)O` [compound 321] ({Tridecanoyl-γGlu-AEEA-AEEA}-[hArg][Nle]Q[hArg]P[dR][NMeL]AHKG[Oic][Phe(4-I)]P[dBip]-OH) here?
**A.** 17.9 nM

**Q.** With `CCCCCCCCCCCCC(=O)N[C@@H](CCC(=O)NCCOCCOCC(=O)NCCOCCOCC(=O)N[C@@H](CCC(N)=O)C(=O)N[C@@H](CCCNC(=N)N)C(=O)N1CCC[C@H]1C(=O)N(C)[C@@H](CCCNC(=N)N)C(=O)N[C@@H](CC1CCCCC1)C(=O)N[C@@H](CO)C(=O)N[C@@H](C)C(=O)N[C@@H](CCCCN)C(=O)NCC(=O)N1[C@H](C(=O)N[C@@H](CCCC)C(=O)N2CCC[C@H]2C(=O)N[C@@H](Cc2ccc(Cl)cc2)C(=O)O)C[C@@H]2CCCC[C@@H]21)C(=O)O` [compound 419] ({Tridecanoyl-γGlu-AEEA-AEEA}-QRP[NMeR][Cha]SAKG[Oic][Nle]P[Phe(4-Cl)]-OH) as the compound, how does the EC50 (human APJ receptor; Table 16) read?
**A.** 0.484 nM

**Q.** For `CCCCCCCCCCCCC(=O)N[C@@H](CCC(=O)NCCOCCOCC(=O)NCCOCCOCC(=O)N[C@@H](CCCN)C(=O)N[C@@H](Cc1ccccc1)C(=O)N[C@@H](CCCCNC(=N)N)C(=O)N[C@@H](CCCCNC(=N)N)C(=O)N[C@@H](CCC(N)=O)C(=O)N(C)[C@@H](CCCNC(=N)N)C(=O)N1CCC[C@H]1C(=O)N(C)[C@@H](CCCNC(=N)N)C(=O)N[C@@H](CC1CCCCC1)C(=O)N[C@@H](CO)C(=O)N[C@@H](Cc1c[nH]cn1)C(=O)N[C@@H](CCCCN)C(=O)NCC(=O)N1[C@H](C(=O)N[C@@H](CCCC)C(=O)N2CCC[C@H]2C(=O)N[C@@H](Cc2ccc(Cl)cc2)C(=O)O)C[C@@H]2CCCC[C@@H]21)C(=O)O` [compound 297] ({Tridecanoyl-γGlu-AEEA-AEEA}-[Orn]F[hArg][hArg]Q[NMeR]P[NMeR][Cha]SHKG[Oic][Nle]P[Phe(4-Cl)]-OH), which remaining at 4 h, 5 μM [1] is on record?
**A.** > 90%

**Q.** And the remaining at 4 h, 5 μM [2]?
**A.** < 1%

**Q.** And the remaining at 4 h, 5 μM [3]?
**A.** 40.3%

**Q.** What about the EC50 (rat APJ receptor; [4]) of the same compound?
**A.** 1.02 nM

**Q.** With `CCCCCCCCCCCCC(=O)N[C@@H](CCC(=O)NCCOCCOCC(=O)NCCOCCOCC(=O)N[C@@H](CCC(N)=O)C(=O)N[C@@H](CCCNC(=N)N)C(=O)N1CCC[C@H]1C(=O)N[C@@H](CCCCNC(=N)N)C(=O)N[C@@H](CC1CCCCC1)C(=O)N[C@@H](CO)C(=O)N[C@@H](Cc1c[nH]cn1)C(=O)N[C@@H](CCCCN)C(=O)NCC(=O)N1[C@H](C(=O)N[C@@H](CCCC)C(=O)N2CCC[C@H]2C(=O)N[C@@H](Cc2ccc(Cl)cc2)C(=O)O)C[C@@H]2CCCC[C@@H]21)C(=O)O` [compound 308] ({Tridecanoyl-γGlu-AEEA-AEEA}-QRP[hArg][Cha]SHKG[Oic][Nle]P[Phe(4-Cl)]-OH) as the compound, how does the remaining at 4 h, 5 μM [1] read?
**A.** 76%

**Q.** And the remaining at 4 h, 5 μM [2]?
**A.** < 1%

**Q.** And the remaining at 4 h, 5 μM [3]?
**A.** 6.2%

**Q.** And the EC50 (rat APJ receptor; [5])?
**A.** 0.18 nM

**Q.** Which results are given for `CCCCCCCCCCCCC(=O)N[C@@H](CCC(=O)NCCOCCOCC(=O)NCCOCCOCC(=O)N[C@@H](CCCNC(=N)N)C(=O)N[C@@H](CCC(N)=O)C(=O)N[C@@H](CCCC)C(=O)N1CCC[C@H]1C(=O)N[C@@H](CCCCNC(=N)N)C(=O)N[C@@H](CC1CCCCC1)C(=O)N[C@@H](CO)C(=O)N[C@@H](C)C(=O)N[C@@H](CCCCN)C(=O)NCC(=O)N1CCCC[C@H]1C(=O)N[C@@H](CCCC)C(=O)N1CCC[C@H]1C(=O)N[C@@H](Cc1ccc(Cl)cc1)C(=O)O)C(=O)O` [compound 564] ({Tridecanoyl-γGlu-AEEA-AEEA}-RQ[Nle]P[hArg][Cha]SAKG[Pip][Nle]P[Phe(4-Cl)]-OH)?
**A.** remaining at 4 h, 5 μM [1]: > 90%; remaining at 4 h, 5 μM [2]: < 1%; remaining at 4 h, 5 μM [3]: 2%; EC50 (rat APJ receptor; [5]): 1.49 nM

**Q.** Which remaining at 4 h, 5 μM [1] does the source give for `CC(=O)N[C@@H](CCCCNC(=N)N)C(=O)N[C@H](CCCNC(=N)N)C(=O)N[C@@H](CCC(N)=O)C(=O)N[C@@H](CCCCNC(=N)N)C(=O)N1CCC[C@H]1C(=O)N[C@@H](CCC(=O)O)C(=O)N(C)[C@@H](CC(C)C)C(=O)N[C@@H](CO)C(=O)N[C@@H](Cc1c[nH]cn1)C(=O)N[C@@H](CCCCN)C(=O)NCC(=O)N1[C@H](C(=O)N[C@@H](Cc2ccc(I)cc2)C(=O)N2CCC[C@H]2C(=O)N[C@H](Cc2ccc(-c3ccccc3)cc2)C(=O)O)C[C@@H]2CCCC[C@@H]21` [compound 79] (Ac-[hArg][dR]Q[hArg]PE[NMeL]SHKG[Oic][Phe(4-I)]P[dBip]-OH) here?
**A.** > 90%

**Q.** And the remaining at 4 h, 5 μM [2]?
**A.** 1.3%

**Q.** What about the remaining at 4 h, 5 μM [3] of the same compound?
**A.** < 1%

**Q.** What about the EC50 (rat APJ receptor; [4]) of the same compound?
**A.** 0.341 nM

**Q.** Which remaining at 4 h, 5 μM [1] does the source give for `CCCC[C@H](NC(=O)[C@@H]1CCCN1C(=O)CNC(=O)[C@H](CCCCN)NC(=O)[C@H](Cc1c[nH]cn1)NC(=O)[C@H](CO)NC(=O)[C@](C)(CC(C)C)NC(=O)[C@H](CCCCNC(=N)N)NC(=O)[C@@H]1CCCN1C(=O)[C@@H](CCCNC(=N)N)NC(=O)[C@H](CCC(N)=O)NC(=O)COCCOCCNC(=O)COCCOCCNC(=O)CC[C@H](NC(=O)CCCCC(=O)O)C(=O)O)C(=O)N1CCC[C@H]1C(=O)N[C@@H](Cc1ccc(Cl)cc1)C(=O)O` [compound 515] here?
**A.** 2%

**Q.** What about the remaining at 4 h, 5 μM [2] of the same compound?
**A.** 6%

**Q.** And the remaining at 4 h, 5 μM [3]?
**A.** < 1%

**Q.** What about the EC50 (rat APJ receptor; [4]) of the same compound?
**A.** 5.94 nM
